According to the NIST ThermoML archive (doi:10.1016/j.fluid.2012.06.013):
Numbers after ± are expanded uncertainties.

Key:
[1] = Liquid; for mass density: 298.15 K, Vibrating tube method
[2] = refractive index (Na D-line) (dimensionless); settings: 298.15 K; 101.33 kPa; Liquid; Standard Abbe refractometry
[3] = xn = mol fraction of the nth substance listed; settings: 298.15 K, 101 kPa, Liquid, Vibrating tube method

CC(=O)OCC(C)C [2-methylpropyl ethanoate]
[1]
Settings | Normal boiling temperature [°C] | mass density [kg/m3]
101.33 kPa | – | 866.2 ± 0.4
Ebulliometric method (Recirculating still) | 116.29 ± 1 | –

Settings | vapor or sublimation pressure [kPa]
[1], 461.03 K, Ebulliometric method (Recirculating still) | 600 ± 7.5

Settings | refractive index
[2] | 1.3882 ± 0.0005

CC(=O)OCC(C)C [2-methylpropyl ethanoate] + CC(C)O
[3]
Settings | mass density [kg/m3]
x1 = 0.051 | 787.4 ± 0.3
x1 = 0.126 | 796.2 ± 0.3
x1 = 0.204 | 804.7 ± 0.3
x1 = 0.235 | 807.9 ± 0.3
x1 = 0.352 | 819.1 ± 0.3
x1 = 0.407 | 824 ± 0.3
x1 = 0.501 | 831.8 ± 0.3
x1 = 0.549 | 835.6 ± 0.3
x1 = 0.677 | 845.1 ± 0.3
x1 = 0.752 | 850.3 ± 0.3
x1 = 0.799 | 853.5 ± 0.3
x1 = 0.868 | 857.9 ± 0.3
x1 = 0.949 | 863.1 ± 0.4
x1 = 1 | 866.2 ± 0.4

CC(=O)OCC(C)C [2-methylpropyl ethanoate] + CCCO
[3]
Settings | mass density [kg/m3]
x1 = 0.053 | 805.4 ± 0.3
x1 = 0.092 | 809.3 ± 0.3
x1 = 0.145 | 814.5 ± 0.3
x1 = 0.196 | 819.1 ± 0.3
x1 = 0.249 | 823.5 ± 0.3
x1 = 0.302 | 827.6 ± 0.3
x1 = 0.346 | 830.9 ± 0.3
x1 = 0.444 | 837.6 ± 0.3
x1 = 0.482 | 840 ± 0.3
x1 = 0.508 | 841.6 ± 0.3
x1 = 0.565 | 845 ± 0.3
x1 = 0.613 | 847.7 ± 0.3
x1 = 0.719 | 853.3 ± 0.3
x1 = 0.751 | 854.9 ± 0.3
x1 = 0.804 | 857.5 ± 0.3
x1 = 0.854 | 859.8 ± 0.3
x1 = 0.889 | 861.4 ± 0.3
x1 = 0.909 | 862.3 ± 0.4
x1 = 0.953 | 864.2 ± 0.4
x1 = 1 | 866.2 ± 0.4

CC(=O)OCC(C)C [2-methylpropyl ethanoate] + CCO
[3]
Settings | mass density [kg/m3]
x1 = 0.09 | 799.8 ± 0.3
x1 = 0.153 | 808.3 ± 0.3
x1 = 0.22 | 816.2 ± 0.3
x1 = 0.277 | 822.2 ± 0.3
x1 = 0.349 | 828.9 ± 0.3
x1 = 0.44 | 836.3 ± 0.3
x1 = 0.563 | 844.8 ± 0.3
x1 = 0.657 | 850.4 ± 0.3
x1 = 0.742 | 854.9 ± 0.3
x1 = 0.85 | 860 ± 0.3
x1 = 0.898 | 862.1 ± 0.3
x1 = 0.942 | 863.9 ± 0.4
x1 = 1 | 866.2 ± 0.4

CCO [ethanol]
Settings | mass density [kg/m3]
[1], 101 kPa | 785.2 ± 0.3

Settings | vapor or sublimation pressure [kPa]
[1], 405.53 K, Ebulliometric method (Recirculating still) | 600 ± 7.5

CCO [ethanol] + CC(=O)OCC(C)C
Settings | mass density [kg/m3]
[3], x2 = 0 | 785.2 ± 0.3

CCCO [propan-1-ol]
[1]
Settings | Normal boiling temperature [°C] | mass density [kg/m3]
101.33 kPa | – | 799.6 ± 0.3
Ebulliometric method (Recirculating still) | 97.29 ± 1 | –

[1]
Settings | vapor or sublimation pressure [kPa]
313.98 K, Closed cell (Static) method | 8 ± 4
325.46 K, Closed cell (Static) method | 14 ± 4
331.28 K, Closed cell (Static) method | 18 ± 4
335.02 K, Closed cell (Static) method | 22 ± 4
339.49 K, Closed cell (Static) method | 28 ± 4
343.81 K, Closed cell (Static) method | 34 ± 4
347.33 K, Closed cell (Static) method | 40 ± 4
351.55 K, Closed cell (Static) method | 48 ± 4
353.46 K, Closed cell (Static) method | 52 ± 4
356.16 K, Closed cell (Static) method | 58 ± 4
359.07 K, Closed cell (Static) method | 66 ± 4
361.64 K, Closed cell (Static) method | 72 ± 4
363.69 K, Closed cell (Static) method | 78 ± 4
366.43 K, Closed cell (Static) method | 88 ± 4
367.86 K, Closed cell (Static) method | 92 ± 4
372.66 K, Closed cell (Static) method | 110 ± 4
374.63 K, Closed cell (Static) method | 118 ± 4
376.34 K, Closed cell (Static) method | 126 ± 4
378.84 K, Closed cell (Static) method | 138 ± 4
380.75 K, Closed cell (Static) method | 148 ± 4
382.61 K, Closed cell (Static) method | 158 ± 4
384.08 K, Closed cell (Static) method | 166 ± 4
385.46 K, Closed cell (Static) method | 174 ± 4
386.6 K, Closed cell (Static) method | 182 ± 4
387.29 K, Closed cell (Static) method | 186 ± 4
389.05 K, Closed cell (Static) method | 198 ± 4
390.26 K, Closed cell (Static) method | 206 ± 4
391.39 K, Closed cell (Static) method | 214 ± 4
393.67 K, Closed cell (Static) method | 230 ± 4
398.52 K, Closed cell (Static) method | 260 ± 4
406.65 K, Closed cell (Static) method | 340 ± 4
410.69 K, Closed cell (Static) method | 382 ± 4
414.02 K, Closed cell (Static) method | 420 ± 4
417.3 K, Closed cell (Static) method | 460 ± 4
418.84 K, Closed cell (Static) method | 475 ± 4
421.54 K, Closed cell (Static) method | 512 ± 4
423.55 K, Closed cell (Static) method | 545 ± 4
427.2 K, Ebulliometric method (Recirculating still) | 600 ± 7.5
427.98 K, Closed cell (Static) method | 612 ± 4
430.49 K, Closed cell (Static) method | 655 ± 4
432.23 K, Closed cell (Static) method | 685 ± 4
434.42 K, Closed cell (Static) method | 722 ± 4
436.33 K, Closed cell (Static) method | 755 ± 4
439.88 K, Closed cell (Static) method | 825 ± 4
441.78 K, Closed cell (Static) method | 865 ± 4
443 K, Closed cell (Static) method | 890 ± 4
444.97 K, Closed cell (Static) method | 935 ± 4
448.1 K, Closed cell (Static) method | 1007 ± 4
449.6 K, Closed cell (Static) method | 1043 ± 4
452.29 K, Closed cell (Static) method | 1112 ± 4
453.22 K, Closed cell (Static) method | 1135 ± 4
454.7 K, Closed cell (Static) method | 1175 ± 5
456 K, Closed cell (Static) method | 1210 ± 5
457.19 K, Closed cell (Static) method | 1245 ± 5
458.54 K, Closed cell (Static) method | 1282 ± 5
459.71 K, Closed cell (Static) method | 1317 ± 5
460.87 K, Closed cell (Static) method | 1352 ± 5
461.97 K, Closed cell (Static) method | 1387 ± 5
463.21 K, Closed cell (Static) method | 1425 ± 5
464.18 K, Closed cell (Static) method | 1455 ± 5
465.41 K, Closed cell (Static) method | 1495 ± 5
466.65 K, Closed cell (Static) method | 1535 ± 5
467.43 K, Closed cell (Static) method | 1562 ± 5
468.64 K, Closed cell (Static) method | 1602 ± 5
469.46 K, Closed cell (Static) method | 1630 ± 5

Settings | refractive index
[2] | 1.3837 ± 0.0005

CCCO [propan-1-ol] + CC(=O)OCC(C)C
Settings | mass density [kg/m3]
[3], x2 = 0 | 799.6 ± 0.3

CC(C)O [propan-2-ol]
[1]
Settings | Normal boiling temperature [°C] | mass density [kg/m3]
101.33 kPa | – | 781.3 ± 0.2
Ebulliometric method (Recirculating still) | 82.38 ± 1 | –

Settings | vapor or sublimation pressure [kPa]
[1], 410.08 K, Ebulliometric method (Recirculating still) | 600 ± 7.5

Settings | refractive index
[2] | 1.3751 ± 0.0005

CC(C)O [propan-2-ol] + CC(=O)OCC(C)C
Settings | mass density [kg/m3]
[3], x2 = 0 | 781.3 ± 0.3
